Tested on: H1650 lung cancer cells
Assay: Cell viability assay (MTT, IC50 determination)
Assay type: cell-based
Settings: Homo sapiens, NCI-H1650, 48 h drug treatment
Experimental: Cell Viability Assays (IC50 Determination)
Cell viability assays were performed according to Denizot, F. and R. Lang, Journal of Immunological Methods, 1986. 89(22): p. 271-277. H1650 lung cancer cells were plated at 150,000 cells per well in a 12 well plate. Twenty-four hours after plating, cells were treated as described with increasing concentrations of drug and control. Forty-eight hours after drug treatment, cells were treated with 100 μL of 3-(4,5-Dimethylthiazol-2-yl)-2,5-diphenyltetrazolium bromide (MTT) and incubated for 2 hours at 37 C. The MTT solution was subsequently replaced with 300 μL of n-propyl alcohol and re-aliquoted to a 96 well plate. Spectrophotometric analysis of each solution was performed using a 96 well plate reader at 600 nm in triplicate.

IC50: 15 µM
Compound: O=S(=O)(N[C@@H]1COC[C@H](N2c3ccccc3CCc3ccccc32)[C@H]1O)c1ccc(OC(F)(F)F)cc1 (racemic) [Example 1, Rac-N-((3R,4R,5S)-5-(10,11-dihydro-5H-dibenzo[b,f]azepin-5-yl)-4-hydroxytetrahydro-2H-pyran-3-yl)-4-(trifluoromethoxy)benzenesulfonamide]

— patent publication US10221158B2, “Heterocyclic constrained tricyclic sulfonamides as anti-cancer agents” (ICAHN SCHOOL OF MEDICINE AT MOUNT SINAI, priority 2015, dated 2019)
